Results taken from patent US20110028566A1, “COMPOSITIONS AND PRODUCTS CONTAINING CYCLOALIPHATIC DIOL ANTIMICROBIAL AGENTS AND METHODS OF USING THE COMPOSITIONS AND PRODUCTS” (EASTMAN CHEMICAL COMPANY, priority 2009, published 2011).

Assays:
Experiment in all cases: Microbial challenge testing in BPW
Type in all cases: cell-based
[1] = test system: Staphylococcus epidermidis; conditions: 2.5%
Method: (§1) The microorganisms used in challenge tests are given in Table 3, designated as either ATCC (American Type Culture Collection) or wild type. These wild type organisms were problematic organisms previously isolated from chemical products. In the description for each organism, the bacteria are indicated as either GN (Gram negative) or GP (Gram positive).
(§2) All of the microorganisms were grown in Tryptose Soy Broth (TSB), DIFCO™ available from Becton, Dickinson and Company, containing 1% dextrose. Aspergillus niger and Candida albicans were incubated at 22° C.±2° C. for at least 96 hours. All bacteria were incubated at 35° C.±2° C. in a humidified incubator for at least 96 hours.
(§3) The following procedure was followed to determine the amount of each challenge material (inoculum broth) required to produce a 10^8 cfu/mL challenge, which is equivalent to a final test-sample microbial concentration of 10^5 to 10^6 cfu (colony-forming units)/mL.
(§4) Using a sterile serological pipette, 1 mL of the growth from each TSB culture was transferred into tubes containing 9 mL phosphate buffer (pH 7.2) and mixed thoroughly. This process was repeated to make serial 1:10 dilutions. Then 0.1 mL of each sample and dilution was inoculated onto agar plates to produce the equivalent of a further 1:10 dilution. C. albicans and A. niger were inoculated onto SDA and bacteria were inoculated onto Plate Count Agar (PCA), DIFCO™ available from Becton, Dickinson and Company. The 0.1 mL aliquots were evenly distributed on the plates using the spread-plate technique. The spread-plate technique is performed by spreading the aliquot over the entire plate surface using a sterile spreading rod while rotating the plate with a rotary auto-plater. After the inoculum was absorbed completely, each plate was inverted and incubated (fungi at 22° C.±2° C. and bacteria at 35° C.±2° C.).
(§5) After incubation for at least 48 hours, colonies that had developed on the agar plates were counted and recorded with the corresponding dilution. If counting had to be delayed temporarily, plates were refrigerated, preferably no more than 24 hours, until they could be counted. The number of cfu/mL was determined by multiplying the count by the dilution factor for that particular plate.
(§6) Turbidity in Nepholemetric Turbidity Units (NTU) was measured for each serial dilution using the HF-Micro 100 Model Turbidimeter. For each microorganism, the plate counts were compared to the turbidity readings.
(§7) Control substrates (“broth alone”) were prepared for each microorganism separately in triplicate by adding 13.5 mL of BPW (pH 7.0) containing 1% (w/v) dextrose to each 20-mL glass tube; then adding 1.5 mL challenge material to produce a final concentration at time zero of 10^5 to 10^6 cfu/mL and a total volume of 15 mL.
(§8) Test sample substrates were prepared containing each test material (1,4-CHDM, etc) or combination of test materials at the concentrations shown in Tables 5 and 6. Sample substrates were prepared in triplicate, except those substrates containing PE or CG which were prepared in duplicate. Substrates were prepared by adding BPW containing 1% (w/v) dextrose to each 20-mL glass tube, then adding the test material in the amount appropriate to achieve the desired weight/volume percent (g/100 mL) and to obtain a total volume of BPW with dextrose and test material of 13.5 mL. Then 1.5 mL challenge material was added to produce a final concentration at time zero of 10^5 to 10^6 cfu/mL of the respective organism and a total test sample substrate volume of 15 mL.
(§9) After mixing, all challenged substrates were incubated at 35° C.±2° C. for 14 days and then at ambient room temperature.

Streptococcus mutans = test system: Streptococcus mutans
Method: as §1, §2, §3, §4, §5, §6, §7, §8, §9

Pseudomonas aeruginosa = test system: Pseudomonas aeruginosa
Method: as §1, §2, §3, §4, §5, §6, §7, §8, §9

Staphylococcus aureus = test system: Staphylococcus aureus
Method: as §1, §2, §3, §4, §5, §6, §7, §8, §9

Candida albicans = test system: Candida albicans
Method: as §1, §2
(§10) Aspergillus niger and Candida albicans were also grown on Sabouraud dextrose agar (SDA) at 22° C.±2° C. for 7 to 14 days or until full sporulation was achieved.
as §3, §4, §5, §6
On the day of challenge, the Candida albicans inoculum broth was poured through non-absorbent sterile gauze and centrifuged. The […] was then diluted with phosphate buffer (pH 7.2) until the desired turbidity was reached. Using a hemocytometer, a determination was made whether the challenge contained the desired concentration. Dilutions were made through 1.0×10^8 and three SDA spread plates were inoculated with 0.1 mL of each dilution.
as §7
(§11) Test sample substrates were prepared containing each test material (1,4-CHDM, etc) or combination of test materials at the concentrations shown in Tables 5 and 6.

Aspergillus niger = test system: Aspergillus niger
Method: as §1, §2, §10, §3, §4, §5, §6
Aspergillus niger cultures were harvested and spores dislodged from the SDA on which they were grown by rubbing the growth gently with a sterile inoculating loop. The spores were then mixed into the broth culture that had been incubated with a sterile magnetic stir bar to reduce pellicle formation. The spore-culture mixture was filtered repeatedly through sterile, non-absorbent cotton and harvested repeatedly, adjusting vegetative cells and spores to a level of 1.0×10^8. A hemocytometer was used to verify the final challenge concentration.
as §7, §11

OCC1CCCC(CO)C1 (centres unmarked) [1,3-CHDM]
Grade code S. epidermidis ([1]; 13 days incubation): 3 (101 to 1000 colonies (thus 1000 to 10,000 cfu/mL)) | Grade code S. epidermidis ([1]; 30 days incubation): 4 (1001 to 10,000 colonies (thus 10,000 cfu/mL to 100,000 cfu/mL)) | Grade code S. mutans (Streptococcus mutans; 0.5%, 3 days incubation): 5 (More than 10,000 colonies estimated (thus >100,000 cfu/mL)) | Grade code S. mutans (Streptococcus mutans; 0.5%, 13 days incubation): 4 (1001 to 10,000 colonies (thus 10,000 cfu/mL to 100,000 cfu/mL)) | Grade code S. mutans (Streptococcus mutans; 0.5%, 30 days incubation): 4 (1001 to 10,000 colonies (thus 10,000 cfu/mL to 100,000 cfu/mL)) | Grade code S. mutans (Streptococcus mutans; 1.25%, 3 days incubation): 4 (1001 to 10,000 colonies (thus 10,000 cfu/mL to 100,000 cfu/mL)) | Grade code S. mutans (Streptococcus mutans; 1.25%, 13 days incubation): 4 (1001 to 10,000 colonies (thus 10,000 cfu/mL to 100,000 cfu/mL)) | Grade code S. mutans (Streptococcus mutans; 1.25%, 30 days incubation): 4 (1001 to 10,000 colonies (thus 10,000 cfu/mL to 100,000 cfu/mL)) | Grade code S. mutans (Streptococcus mutans; 2.5%, 3 days incubation): 4 (1001 to 10,000 colonies (thus 10,000 cfu/mL to 100,000 cfu/mL)) | Grade code S. mutans (Streptococcus mutans; 2.5%, 13 days incubation): 4 (1001 to 10,000 colonies (thus 10,000 cfu/mL to 100,000 cfu/mL)) | Grade code S. mutans (Streptococcus mutans; 2.5%, 30 days incubation): 4 (1001 to 10,000 colonies (thus 10,000 cfu/mL to 100,000 cfu/mL)) | Grade code P. aeruginosa (Pseudomonas aeruginosa; 0.5%, 3 days incubation): 5 (More than 10,000 colonies estimated (thus >100,000 cfu/mL)) | Grade code P. aeruginosa (Pseudomonas aeruginosa; 0.5%, 13 days incubation): 5 (More than 10,000 colonies estimated (thus >100,000 cfu/mL)) | Grade code P. aeruginosa (Pseudomonas aeruginosa; 0.5%, 30 days incubation): 5 (More than 10,000 colonies estimated (thus >100,000 cfu/mL)) | Grade code P. aeruginosa (Pseudomonas aeruginosa; 1.25%, 3 days incubation): 4 (1001 to 10,000 colonies (thus 10,000 cfu/mL to 100,000 cfu/mL)) | Grade code P. aeruginosa (Pseudomonas aeruginosa; 1.25%, 13 days incubation): 4 (1001 to 10,000 colonies (thus 10,000 cfu/mL to 100,000 cfu/mL)) | Grade code P. aeruginosa (Pseudomonas aeruginosa; 1.25%, 30 days incubation): 4 (1001 to 10,000 colonies (thus 10,000 cfu/mL to 100,000 cfu/mL)) | Grade code P. aeruginosa (Pseudomonas aeruginosa; 2.5%, 3 days incubation): 4 (1001 to 10,000 colonies (thus 10,000 cfu/mL to 100,000 cfu/mL)) | Grade code P. aeruginosa (Pseudomonas aeruginosa; 2.5%, 13 days incubation): 4 (1001 to 10,000 colonies (thus 10,000 cfu/mL to 100,000 cfu/mL)) | Grade code P. aeruginosa (Pseudomonas aeruginosa; 2.5%, 30 days incubation): 4 (1001 to 10,000 colonies (thus 10,000 cfu/mL to 100,000 cfu/mL)) | Grade code S. aureus (Staphylococcus aureus; 0.5%, 3 days incubation): 4 (1001 to 10,000 colonies (thus 10,000 cfu/mL to 100,000 cfu/mL)) | Grade code S. aureus (Staphylococcus aureus; 0.5%, 14 days incubation): 4 (1001 to 10,000 colonies (thus 10,000 cfu/mL to 100,000 cfu/mL)) | Grade code S. aureus (Staphylococcus aureus; 0.5%, 30 days incubation): 4 (1001 to 10,000 colonies (thus 10,000 cfu/mL to 100,000 cfu/mL)) | Grade code S. aureus (Staphylococcus aureus; 1.25%, 3 days incubation): 4 (1001 to 10,000 colonies (thus 10,000 cfu/mL to 100,000 cfu/mL)) | Grade code S. aureus (Staphylococcus aureus; 1.25%, 14 days incubation): 4 (1001 to 10,000 colonies (thus 10,000 cfu/mL to 100,000 cfu/mL)) | Grade code S. aureus (Staphylococcus aureus; 1.25%, 30 days incubation): 4 (1001 to 10,000 colonies (thus 10,000 cfu/mL to 100,000 cfu/mL)) | Grade code S. aureus (Staphylococcus aureus; 2.5%, 3 days incubation): 4 (1001 to 10,000 colonies (thus 10,000 cfu/mL to 100,000 cfu/mL)) | Grade code S. aureus (Staphylococcus aureus; 2.5%, 14 days incubation): 4 (1001 to 10,000 colonies (thus 10,000 cfu/mL to 100,000 cfu/mL)) | Grade code S. aureus (Staphylococcus aureus; 2.5%, 30 days incubation): 4 (1001 to 10,000 colonies (thus 10,000 cfu/mL to 100,000 cfu/mL)) | Grade code C. albicans (Candida albicans; 0.5%, 3 days incubation): 4 (1001 to 10,000 colonies (thus 10,000 cfu/mL to 100,000 cfu/mL)) | Grade code C. albicans (Candida albicans; 0.5%, 14 days incubation): 4 (1001 to 10,000 colonies (thus 10,000 cfu/mL to 100,000 cfu/mL)) | Grade code C. albicans (Candida albicans; 0.5%, 30 days incubation): 4 (1001 to 10,000 colonies (thus 10,000 cfu/mL to 100,000 cfu/mL)) | Grade code C. albicans (Candida albicans; 1.25%, 3 days incubation): 4 (1001 to 10,000 colonies (thus 10,000 cfu/mL to 100,000 cfu/mL)) | Grade code C. albicans (Candida albicans; 1.25%, 14 days incubation): 4 (1001 to 10,000 colonies (thus 10,000 cfu/mL to 100,000 cfu/mL)) | Grade code C. albicans (Candida albicans; 1.25%, 30 days incubation): 4 (1001 to 10,000 colonies (thus 10,000 cfu/mL to 100,000 cfu/mL)) | Grade code C. albicans (Candida albicans; 2.5%, 3 days incubation): 4 (1001 to 10,000 colonies (thus 10,000 cfu/mL to 100,000 cfu/mL)) | Grade code C. albicans (Candida albicans; 2.5%, 14 days incubation): 4 (1001 to 10,000 colonies (thus 10,000 cfu/mL to 100,000 cfu/mL)) | Grade code C. albicans (Candida albicans; 2.5%, 30 days incubation): 4 (1001 to 10,000 colonies (thus 10,000 cfu/mL to 100,000 cfu/mL)) | Grade code A. niger (Aspergillus niger; 0.5%, 3 days incubation): 5 | Grade code A. niger (Aspergillus niger; 0.5%, 13 days incubation): 5 | Grade code A. niger (Aspergillus niger; 0.5%, 30 days incubation): 5 | Grade code A. niger (Aspergillus niger; 1.25%, 3 days incubation): 5 | Grade code A. niger (Aspergillus niger; 1.25%, 13 days incubation): 4 | Grade code A. niger (Aspergillus niger; 1.25%, 30 days incubation): 4 | Grade code A. niger (Aspergillus niger; 2.5%, 3 days incubation): 4 | Grade code A. niger (Aspergillus niger; 2.5%, 13 days incubation): 4 | Grade code A. niger (Aspergillus niger; 2.5%, 30 days incubation): 4
